Test results reported in paper PMC4775085 (ACS chemical neuroscience, 2015).

Key:
HDAC11 = target: T1, HDAC11 (Homo sapiens, UniProt Q96DB2); experiment: HDAC11 enzymatic inhibition assay
T1 sequence (Q96DB2 1-347): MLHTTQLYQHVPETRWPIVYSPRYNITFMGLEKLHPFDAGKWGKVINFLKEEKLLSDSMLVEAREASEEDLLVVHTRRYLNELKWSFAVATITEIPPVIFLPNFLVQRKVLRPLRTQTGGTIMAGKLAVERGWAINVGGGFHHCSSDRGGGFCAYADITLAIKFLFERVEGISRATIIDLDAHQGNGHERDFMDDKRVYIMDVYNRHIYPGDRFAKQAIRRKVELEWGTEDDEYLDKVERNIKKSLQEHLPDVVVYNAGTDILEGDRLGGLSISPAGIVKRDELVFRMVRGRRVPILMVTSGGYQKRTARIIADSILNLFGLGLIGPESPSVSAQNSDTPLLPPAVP

HDAC2 = HDAC2 (Homo sapiens, UniProt Q92769); experiment: HDAC2 enzymatic inhibition assay
Chain of HDAC2 (Q92769 whole entry): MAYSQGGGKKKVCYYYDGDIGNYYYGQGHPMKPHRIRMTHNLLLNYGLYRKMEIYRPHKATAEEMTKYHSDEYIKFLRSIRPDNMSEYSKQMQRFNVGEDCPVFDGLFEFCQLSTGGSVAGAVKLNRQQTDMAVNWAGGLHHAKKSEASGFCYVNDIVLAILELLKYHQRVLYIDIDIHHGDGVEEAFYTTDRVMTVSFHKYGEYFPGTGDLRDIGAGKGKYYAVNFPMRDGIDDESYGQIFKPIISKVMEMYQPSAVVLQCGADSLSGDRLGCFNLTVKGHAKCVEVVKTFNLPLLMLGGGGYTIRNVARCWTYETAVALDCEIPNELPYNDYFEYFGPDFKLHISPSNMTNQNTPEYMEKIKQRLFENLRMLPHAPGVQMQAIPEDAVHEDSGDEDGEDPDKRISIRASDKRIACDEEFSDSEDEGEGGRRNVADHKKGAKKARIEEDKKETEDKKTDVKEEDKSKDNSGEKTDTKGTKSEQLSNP

HDAC8 = target: T2, HDAC8 (Homo sapiens, UniProt Q9BY41); experiment: HDAC8 enzymatic inhibition assay
T2 sequence (Q9BY41 1-377): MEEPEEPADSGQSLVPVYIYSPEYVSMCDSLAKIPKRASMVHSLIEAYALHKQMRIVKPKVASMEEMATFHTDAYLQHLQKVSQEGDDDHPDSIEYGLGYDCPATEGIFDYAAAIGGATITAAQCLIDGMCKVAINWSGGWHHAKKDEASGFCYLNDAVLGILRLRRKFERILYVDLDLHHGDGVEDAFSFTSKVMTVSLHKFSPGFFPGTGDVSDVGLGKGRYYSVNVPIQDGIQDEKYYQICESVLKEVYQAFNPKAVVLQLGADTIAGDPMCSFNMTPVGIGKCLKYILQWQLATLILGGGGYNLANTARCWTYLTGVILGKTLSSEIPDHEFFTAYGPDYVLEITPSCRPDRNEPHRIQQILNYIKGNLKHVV

HDAC7 = target: T3, HDAC7 (Homo sapiens, UniProt Q8WUI4); experiment: HDAC7 enzymatic inhibition assay
T3 sequence (Q8WUI4 1-952): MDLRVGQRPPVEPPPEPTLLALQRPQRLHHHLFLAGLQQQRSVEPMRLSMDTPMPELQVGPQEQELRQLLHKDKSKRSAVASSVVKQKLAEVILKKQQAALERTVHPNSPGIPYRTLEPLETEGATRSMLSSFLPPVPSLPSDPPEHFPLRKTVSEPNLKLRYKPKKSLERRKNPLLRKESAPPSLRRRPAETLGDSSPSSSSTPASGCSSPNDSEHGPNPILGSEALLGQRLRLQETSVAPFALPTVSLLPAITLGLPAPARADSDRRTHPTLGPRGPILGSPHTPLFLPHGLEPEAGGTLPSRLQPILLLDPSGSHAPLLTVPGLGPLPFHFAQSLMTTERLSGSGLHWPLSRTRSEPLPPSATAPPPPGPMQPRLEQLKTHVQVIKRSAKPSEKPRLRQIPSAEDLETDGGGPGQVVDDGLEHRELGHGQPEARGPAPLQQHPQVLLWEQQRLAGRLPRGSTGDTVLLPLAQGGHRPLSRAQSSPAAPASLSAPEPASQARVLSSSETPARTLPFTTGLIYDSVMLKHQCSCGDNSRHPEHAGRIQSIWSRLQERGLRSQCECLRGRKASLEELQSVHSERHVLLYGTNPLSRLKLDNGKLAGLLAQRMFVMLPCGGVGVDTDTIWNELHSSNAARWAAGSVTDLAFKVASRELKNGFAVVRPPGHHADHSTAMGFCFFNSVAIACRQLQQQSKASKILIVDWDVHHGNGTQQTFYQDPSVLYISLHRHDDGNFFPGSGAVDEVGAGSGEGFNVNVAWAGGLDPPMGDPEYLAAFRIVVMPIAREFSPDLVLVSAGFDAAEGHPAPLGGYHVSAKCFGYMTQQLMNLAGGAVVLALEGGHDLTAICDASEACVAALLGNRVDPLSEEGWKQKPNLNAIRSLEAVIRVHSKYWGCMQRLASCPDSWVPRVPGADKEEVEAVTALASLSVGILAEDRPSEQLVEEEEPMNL

[1] = test system: acetylated histone 3 in N2a cells; experiment: Acetylated histone 3/histone 4 ratio in N2a cells by Western blot; assay type: cell-based, mouse; details: overnight, vehicle = 1.00
HDAC5 = HDAC5 (Homo sapiens, UniProt Q9UQL6); experiment: HDAC5 enzymatic inhibition assay
Chain of HDAC5 (Q9UQL6 whole entry): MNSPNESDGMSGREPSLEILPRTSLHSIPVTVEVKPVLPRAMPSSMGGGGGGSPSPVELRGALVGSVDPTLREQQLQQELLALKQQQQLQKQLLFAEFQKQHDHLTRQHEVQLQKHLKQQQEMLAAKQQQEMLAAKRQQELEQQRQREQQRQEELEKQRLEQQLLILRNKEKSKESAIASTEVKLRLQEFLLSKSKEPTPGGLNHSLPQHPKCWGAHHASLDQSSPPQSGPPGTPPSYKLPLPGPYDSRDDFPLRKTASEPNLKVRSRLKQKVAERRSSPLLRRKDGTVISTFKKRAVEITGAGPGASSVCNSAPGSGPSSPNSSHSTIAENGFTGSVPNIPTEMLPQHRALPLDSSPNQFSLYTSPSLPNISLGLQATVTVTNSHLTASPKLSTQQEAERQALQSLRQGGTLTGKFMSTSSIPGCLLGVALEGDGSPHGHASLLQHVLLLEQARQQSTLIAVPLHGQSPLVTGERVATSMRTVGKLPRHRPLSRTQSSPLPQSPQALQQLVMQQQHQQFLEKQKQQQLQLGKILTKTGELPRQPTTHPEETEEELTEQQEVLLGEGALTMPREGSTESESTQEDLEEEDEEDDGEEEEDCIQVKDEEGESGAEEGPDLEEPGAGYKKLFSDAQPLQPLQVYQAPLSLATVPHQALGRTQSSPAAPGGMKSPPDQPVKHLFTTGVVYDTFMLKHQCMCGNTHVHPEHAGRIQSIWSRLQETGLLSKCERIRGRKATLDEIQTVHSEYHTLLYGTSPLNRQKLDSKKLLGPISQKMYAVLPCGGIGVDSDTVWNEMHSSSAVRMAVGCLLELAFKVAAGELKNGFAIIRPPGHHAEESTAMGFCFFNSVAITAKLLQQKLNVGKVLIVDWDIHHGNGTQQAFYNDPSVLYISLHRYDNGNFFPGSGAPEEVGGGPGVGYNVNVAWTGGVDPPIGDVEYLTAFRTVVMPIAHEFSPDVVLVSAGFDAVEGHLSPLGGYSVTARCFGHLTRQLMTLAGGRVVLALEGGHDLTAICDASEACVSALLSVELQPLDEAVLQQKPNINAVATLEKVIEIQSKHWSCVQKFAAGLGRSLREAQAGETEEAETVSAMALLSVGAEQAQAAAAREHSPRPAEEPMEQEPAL

HDAC1 = HDAC1 (Homo sapiens, UniProt Q13547); experiment: HDAC1 enzymatic inhibition assay; assay type: biochemical; details: HDAC1 IC50, singlet 10-dose IC50 mode, 3-fold serial dilution starting at 100 μM
Chain of HDAC1 (Q13547 whole entry): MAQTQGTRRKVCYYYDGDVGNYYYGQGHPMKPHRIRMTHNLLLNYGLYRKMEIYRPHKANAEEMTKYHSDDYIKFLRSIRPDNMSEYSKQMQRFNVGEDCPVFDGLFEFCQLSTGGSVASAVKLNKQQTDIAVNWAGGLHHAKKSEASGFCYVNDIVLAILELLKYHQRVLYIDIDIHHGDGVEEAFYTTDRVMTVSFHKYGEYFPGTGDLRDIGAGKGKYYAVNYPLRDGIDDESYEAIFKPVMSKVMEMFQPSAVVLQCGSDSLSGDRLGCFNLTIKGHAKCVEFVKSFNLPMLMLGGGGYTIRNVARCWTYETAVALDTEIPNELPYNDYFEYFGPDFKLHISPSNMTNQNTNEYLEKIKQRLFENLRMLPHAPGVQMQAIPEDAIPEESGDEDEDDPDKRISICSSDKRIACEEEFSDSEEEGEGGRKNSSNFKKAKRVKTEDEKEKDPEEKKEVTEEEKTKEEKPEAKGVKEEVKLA

HDAC9 = HDAC9 (Homo sapiens, UniProt Q9UKV0); experiment: HDAC9 enzymatic inhibition assay
Chain of HDAC9 (Q9UKV0 whole entry): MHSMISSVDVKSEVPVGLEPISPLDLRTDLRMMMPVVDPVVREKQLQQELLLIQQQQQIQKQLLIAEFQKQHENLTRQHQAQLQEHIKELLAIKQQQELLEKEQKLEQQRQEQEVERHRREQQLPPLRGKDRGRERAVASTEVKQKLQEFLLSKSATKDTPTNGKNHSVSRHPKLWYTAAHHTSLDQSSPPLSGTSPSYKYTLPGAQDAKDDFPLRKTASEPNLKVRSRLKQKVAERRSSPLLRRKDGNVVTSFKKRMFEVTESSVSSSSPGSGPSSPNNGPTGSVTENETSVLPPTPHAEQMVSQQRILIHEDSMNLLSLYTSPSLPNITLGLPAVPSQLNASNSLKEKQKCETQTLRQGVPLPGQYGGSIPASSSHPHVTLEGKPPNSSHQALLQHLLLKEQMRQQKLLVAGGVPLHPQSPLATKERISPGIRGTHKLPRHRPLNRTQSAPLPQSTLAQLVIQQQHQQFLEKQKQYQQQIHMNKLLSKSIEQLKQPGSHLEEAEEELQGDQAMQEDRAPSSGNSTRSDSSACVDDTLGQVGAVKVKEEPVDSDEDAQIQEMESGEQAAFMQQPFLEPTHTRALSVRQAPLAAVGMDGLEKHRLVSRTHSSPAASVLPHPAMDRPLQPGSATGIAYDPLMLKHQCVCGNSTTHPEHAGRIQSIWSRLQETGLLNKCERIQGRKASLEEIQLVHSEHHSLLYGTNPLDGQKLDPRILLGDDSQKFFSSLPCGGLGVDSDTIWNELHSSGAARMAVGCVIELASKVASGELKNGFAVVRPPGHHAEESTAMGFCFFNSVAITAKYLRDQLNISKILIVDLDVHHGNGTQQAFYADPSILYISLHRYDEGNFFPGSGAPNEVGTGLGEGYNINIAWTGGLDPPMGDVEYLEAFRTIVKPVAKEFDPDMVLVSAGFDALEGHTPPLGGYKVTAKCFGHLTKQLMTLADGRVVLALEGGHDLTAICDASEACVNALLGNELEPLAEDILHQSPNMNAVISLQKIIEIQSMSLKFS

mutant HSPB1 DRG neurons = experiment: Mitochondrial axonal transport in mutant HSPB1 DRG neurons; assay type: cell-based, mouse; details: DRG neurons from transgenic mutant HSPB1 mice, 100 nM overnight

IC50 (HDAC11): 7490 nM
IC50 (HDAC2): 7430 nM
IC50 (HDAC8): 368 nM
IC50 (HDAC7): 211 nM
IC50 (HDAC5): 397 nM
IC50 (HDAC1): 4360 nM
IC50 (HDAC9): 463 nM
SMILES: Cc1nc2ccc(F)cc2n1Cc1ccc(C(=O)NO)cc1 [30a, 4-[(6-Fluoro-2-methyl-1-benzimidazolyl)methyl]-N-hydroxybenzamide]
ratio acetylated H3/H4 (1 μM) mean [1]: did not alter the acetylation of histone 3
mitochondrial axonal transport (number of moving mitochondria per 100 μm of neurite) (mutant HSPB1 DRG neurons): able to restore the movement of mitochondria
